{"source": "patent US20040086880A1", "about": "“Method of producing nucleic acid molecules with reduced secondary structure” (priority 1999, published 2004)", "key": {"T7 RNA polymerase": {"molecular_target": "T1, T7 RNA polymerase (Escherichia phage T7, UniProt P00573)", "T1 construct": "purchased Ambion Inc", "assay": "Transcription of ribo-UNA from linearized DNA template", "assay_type": "biochemical", "conditions": "substituted for ATP and UTP; 37° C., one hour", "experimental": "The ability to transcribe longer ribo-UNAs (rUNAs) using T7 RNA polymerase and the corresponding modified ribonucleotide triphosphates was tested using a linear double-stranded DNA template. A plasmid DNA containing the human retinoblastoma gene under control of a T7 RNA polymerase promoter was digested with the restriction endonucleases XbaI and AflII. The resulting linearized plasmid templates for a 138 nucleotide transcript when transcribed with T7 RNA polymerase (see FIG. 34A).\nThe transcription reactions (20 uL) contained 1× transcription buffer (Ambion Inc.), 0.5 mM GTP, 0.5 mM ATP (or 2-aminoadenosine-5′-triphosphate (rD)), 0.5 mM UTP (or 2-thiouridine-5′-triphosphate (rS), 1.6 uM α-^32P-CTP, 1 ug of the linearized DNA template and 10 units of T7 RNA polymerase (Ambion Inc.). The reaction mixtures were incubated at 37° C. for one hour and then separated by electrophoresis on a 6%/7M urea polyacrylamide gel."}, "Bst DNA polymerase [1]": {"molecular_target": "T2, Bst DNA polymerase (Geobacillus stearothermophilus, UniProt P52026)", "T2 construct": "purchased New England Biolabs", "T2 sequence (P52026 290-876 limits assumed)": "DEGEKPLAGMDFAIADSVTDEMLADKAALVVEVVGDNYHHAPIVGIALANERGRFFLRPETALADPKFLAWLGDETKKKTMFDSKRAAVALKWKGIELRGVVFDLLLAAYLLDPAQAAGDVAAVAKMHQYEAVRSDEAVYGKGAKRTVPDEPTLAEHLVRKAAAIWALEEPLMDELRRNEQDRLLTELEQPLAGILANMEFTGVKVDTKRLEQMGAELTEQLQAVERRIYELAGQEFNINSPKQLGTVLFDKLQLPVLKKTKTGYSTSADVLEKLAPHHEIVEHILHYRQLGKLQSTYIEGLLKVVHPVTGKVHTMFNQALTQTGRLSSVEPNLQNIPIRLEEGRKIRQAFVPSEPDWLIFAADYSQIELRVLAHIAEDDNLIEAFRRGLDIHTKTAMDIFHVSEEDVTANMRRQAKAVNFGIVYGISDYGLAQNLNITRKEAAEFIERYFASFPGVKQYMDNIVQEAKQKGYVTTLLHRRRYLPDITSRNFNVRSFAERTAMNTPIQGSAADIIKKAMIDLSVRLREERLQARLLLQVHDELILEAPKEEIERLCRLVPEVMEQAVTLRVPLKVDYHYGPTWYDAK", "assay": "Single nucleotide extension of 6-mer primers at varying dNTP concentration", "assay_type": "biochemical", "conditions": "for extension efficiency of 6-mer primer compared with natural dNTP: dNTP 0.5 microM to 130 microM, 45° C., 8 hours", "experimental": "To further assess the incorporation efficiency of the modified nucleotides by Bst DNA polymerase, the efficiency for a single nucleotide extension reaction was determined using two 6-mer primers in the presence of varying concentrations of dATP, 2-amino-2′-deoxyadenosine-5′-triphosphate, dTTP or 2-thiothymidine-5′-triphosphate (illustrated as 2-thioTTP) (FIGS. 3A and 4A). For this study, the reaction mixtures contained: 20 mM Tris-Cl (pH 8.8 @ 25° C.), 10 mM KCl, 10 mM (NH4)2SO4, 2 mM MgSO4, 0.1% Triton-X100, 500 nanoM 6-mer primer, 20 nanoM 30-mer DNA template, 0.8 units/microL (˜70 nanoM) Bst DNA polymerase and a dNTP concentration ranging from 0.5 microM to 130 microM. The reaction mixtures were incubated at 45° C. for 8 hours and separated by electrophoresis on 20% denaturing (7M urea) polyacrylamide gels."}, "[2]": {"molecular_target": "T3, SuperScript II MMLV reverse transcriptase (Moloney murine leukemia virus, UniProt P03355, D1183G/D1242N/E1221Q)", "T3 construct": "200 units of SuperScript II MMLV reverse transcriptase (InVitrogen); purchased InVitrogen", "assay": "Synthesis of full-length cUNA from polyadenylated T7-RNA transcripts", "assay_type": "biochemical", "conditions": "additional substitution for GTP; relative to natural dNTP or D/S substituted reactions", "experimental": "The ability to synthesize full-length UNA copies (cUNAs) of polyadenylated RNA was tested using various reverse transcriptase enzymes and three T7-RNA transcripts having 3′-polyadenylated tails as templates. The three T7-RNA transcripts correspond to the genes for the penicillin binding protein from E. coli (pBp-1), the chlorophyll A/B binding protein from Arabidopsis thaliana (Cab), and nucleotides 5-335 of the Hepatitis C virus (HCV) genome (See FIG. 32 (panel A)). The expected length of the cUNAs generated from the three polyadenylated RNAs using an oligo-dT primer is 1194, 729 and 360 nucleotides respectively (see FIG. 32 (panel B)).\nThe reverse transcriptase reactions (15.0 uL) were performed in 0.65 mL pre-siliconized microfuge tubes containing the following components: 50 mM Tris-Cl (pH 8.3), 75 mM KCl, 3.0 mM MgCl2, 4.5 mM DTT, 500 uM dGTP (or dITP), 500 uM dATP (or 2-amino-2′-deoxyadenosine-5′-triphosphate), 500 uM TTP (or 2-thiothymidine-5′-triphosphate), 100 uM dCTP, 0.33 uCi of ^32P-α-dCTP, 20 nM each T7-RNA template, 1.0 uM T16N2 primer, 1.0 unit of RNase Out (In Vitrogen), and 200 units of SuperScript II MMLV reverse transcriptase (InVitrogen). The buffer components, RNA template and primer were annealed by heating to 75° C. for 4 minutes and quickly cooled to room temperature. […]"}, "Bst DNA polymerase [3]": {"molecular_target": "T4, Bst DNA polymerase (Geobacillus stearothermophilus, UniProt P52026)", "T4 sequence (P52026 1-876)": "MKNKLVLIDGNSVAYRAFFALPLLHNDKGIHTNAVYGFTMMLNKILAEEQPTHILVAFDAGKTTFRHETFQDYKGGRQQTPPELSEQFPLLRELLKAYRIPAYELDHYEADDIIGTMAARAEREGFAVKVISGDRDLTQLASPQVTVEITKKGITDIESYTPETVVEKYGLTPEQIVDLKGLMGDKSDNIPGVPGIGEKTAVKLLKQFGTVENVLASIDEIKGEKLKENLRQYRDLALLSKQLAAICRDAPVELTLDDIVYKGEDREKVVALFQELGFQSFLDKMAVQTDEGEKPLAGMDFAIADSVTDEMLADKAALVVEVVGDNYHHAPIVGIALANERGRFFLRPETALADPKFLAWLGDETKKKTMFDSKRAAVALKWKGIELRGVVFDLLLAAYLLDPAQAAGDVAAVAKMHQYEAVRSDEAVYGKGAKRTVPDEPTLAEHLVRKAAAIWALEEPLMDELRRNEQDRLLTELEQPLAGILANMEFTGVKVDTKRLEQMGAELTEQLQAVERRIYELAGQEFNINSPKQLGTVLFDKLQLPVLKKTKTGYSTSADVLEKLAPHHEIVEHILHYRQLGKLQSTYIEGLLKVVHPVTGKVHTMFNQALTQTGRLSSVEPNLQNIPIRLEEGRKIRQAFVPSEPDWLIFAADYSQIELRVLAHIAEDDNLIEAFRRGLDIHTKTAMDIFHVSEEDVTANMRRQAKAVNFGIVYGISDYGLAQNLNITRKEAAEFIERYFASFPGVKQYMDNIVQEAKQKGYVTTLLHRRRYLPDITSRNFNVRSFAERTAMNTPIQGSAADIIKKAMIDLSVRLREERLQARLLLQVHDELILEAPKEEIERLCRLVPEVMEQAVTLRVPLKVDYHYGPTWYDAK", "assay": "Incorporation specificity of 2-thio-2′-deoxycytidine triphosphate opposite template G or I", "assay_type": "biochemical", "conditions": "5.0 uM dNTP, 45° C.; for primer extension rate: template I", "experimental": "The reactions were incubated at 45° C. At 5, 10, 20 and 40 minutes, 7.0 uL aliquots were removed and the reaction mixture was separated by electrophoresis on 20%/7M urea polyacrylamide gels. The products were visualized by phosphorimaging."}, "[4]": {"conditions": "28-mer duplexes; cited from earlier work"}}}
{"compound": "Nc1nc(N)c2ncn([C@@H]3O[C@H](COP(=O)(O)OP(=O)(O)OP(=O)(O)O)[C@@H](O)[C@H]3O)c2n1", "note": "[2-aminoadenosine-5′-triphosphate]", "values": [{"measurement": "full-length product (138 nucleotide transcript)", "setting": "T7 RNA polymerase", "value": "full-length product is generated"}]}
{"compound": "Nc1ncnc2c1ncn2[C@H]1C[C@H](O)[C@@H](COP(=O)(O)OP(=O)(O)OP(=O)(O)O)O1", "note": "[dATP, 2′-deoxyadenosine-5′-triphosphate, reference compound]", "values": [{"measurement": "extension efficiency of 6-mer primer compared with natural dNTP", "setting": "Bst DNA polymerase [1]", "value": "approximately equal efficiencies"}]}
{"compound": "O=P(O)(O)OP(=O)(O)OP(=O)(O)OC[C@H]1O[C@@H](n2cnc3c(O)ncnc32)C[C@@H]1O", "note": "[ITP, 2′-deoxyinosine-5′-triphosphate]", "values": [{"measurement": "reduction of yield of full-length product", "setting": "[2]", "value": "about 2 fold"}]}
{"compound": "Nc1ccn([C@H]2C[C@H](O)[C@@H](COP(=O)(O)OP(=O)(O)OP(=O)(O)O)O2)c(=O)n1", "note": "[dCTP, 2′-deoxycytidine-5′-triphosphate, reference compound]", "values": [{"measurement": "conversion of the 12-mer primer to the 13-mer extension product", "setting": "Bst DNA polymerase [3]; template G", "value": "efficient conversion"}, {"measurement": "primer extension rate", "setting": "Bst DNA polymerase [3]", "value": "equivalent"}]}
{"compound": "O=c1ccn([C@@H]2O[C@H](COP(=O)(O)OP(=O)(O)OP(=O)(O)O)[C@@H](O)[C@H]2O)c(=S)[nH]1", "note": "[2-thiouridine-5′-triphosphate]", "values": [{"measurement": "full-length product (138 nucleotide transcript)", "setting": "T7 RNA polymerase", "value": "full-length product is generated"}]}
{"compound": "OC[C@H]1O[C@@H](n2cnc3c(O)ncnc32)[C@H](O)[C@@H]1O", "note": "[I, inosine]", "values": [{"measurement": "change of duplex Tm per modified base pair", "setting": "[4]", "value": "−1.9", "unit": "°C"}]}
{"compound": "c1cc2[nH]cncc-2n1", "note": "[P, pyrrolo-pyrimidine]", "values": [{"measurement": "change of duplex Tm per modified base pair", "setting": "[4]", "value": "−0.5", "unit": "°C"}]}
{"compound": "Nc1ccn([C@H]2C[C@H](O)[C@@H](COP(=O)(O)OP(=O)(O)OP(=O)(O)O)O2)c(=S)n1", "note": "[2-thio-2′-deoxycytidine triphosphate, 2-thio-2′-deoxycytidine-5′-triphosphate]", "values": [{"measurement": "primer extension rate", "setting": "Bst DNA polymerase [3]", "value": "equivalent"}]}
{"compound": "Cc1cn([C@H]2C[C@H](O)[C@@H](COP(=O)(O)OP(=O)(O)OP(=O)(O)O)O2)c(=O)[nH]c1=O", "note": "[dTTP, 2′-deoxythymidine-5′-triphosphate, reference compound]", "values": [{"measurement": "EC50", "setting": "Bst DNA polymerase [1]", "value": "~4", "unit": "µM"}, {"measurement": "extension efficiency of 6-mer primer compared with natural dNTP", "setting": "Bst DNA polymerase [1]", "value": "very similar"}]}
